The record followed here is PMC3317778, “Development of a Unique Small Molecule Modulator of CXCR4” (PLoS ONE, 2012).

In general, pIC50 refers to the negative decadic logarithm of the IC50, by convention in mol/L.

pIC50: −log10 of the molar value.

The target of assay [1] is T1, CXC chemokine receptor-4 (CXCR4) (Homo sapiens, UniProt P61073).
The target of assay [2] is T1, CXC chemokine receptor-4 (CXCR4). The experiment in a line: competition with biotinylated TN14003 on MDA-MB-231 cells (immunofluorescence); supported by CXCL12-induced cAMP modulation assay in CXCR4-expressing cells (IC50 is for CXCR4/CXCL12 actions). It is filed as cell-based.

T1 sequence (P61073 whole entry): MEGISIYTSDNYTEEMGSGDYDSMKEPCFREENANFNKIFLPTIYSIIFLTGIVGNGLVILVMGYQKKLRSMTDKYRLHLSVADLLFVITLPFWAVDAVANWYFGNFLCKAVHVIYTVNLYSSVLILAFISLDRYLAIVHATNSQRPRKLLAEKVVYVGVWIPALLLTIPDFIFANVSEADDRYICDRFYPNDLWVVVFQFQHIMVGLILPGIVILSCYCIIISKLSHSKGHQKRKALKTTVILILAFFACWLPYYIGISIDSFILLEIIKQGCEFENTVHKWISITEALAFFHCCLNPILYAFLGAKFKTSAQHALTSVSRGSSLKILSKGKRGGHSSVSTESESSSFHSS

As for `c1cc(CN2CCCNCCNCCCNCC2)ccc1CN1CCCNCCNCCCNCC1` [AMD3100], in assay [1], the “reference antagonist; block of CXCL12-induced cAMP reduction in U87CD4CXCR4 cell” value stood at 1000 nM. As to `c1cnc(NCc2ccc(CNc3ncccn3)cc2)nc1` [MSX-122, N,N′-(1,4-phenylenebis(methylene))dipyrimidin-2-amine], the pIC50 in assay [2] was around 8.00.
